Measurements published in US20250011316A1, “PEROXIREDOXIN 3 INHIBITORS AND METHODS OF USE FOR TREATING CANCER” (Wake Forest University Health Sciences, priority 2022, published 2025).
Where a name gives a salt, the structure may show the parent alone. Each block holds one compound with its values, some of them ahead of it.

How the values were obtained:
FIG. 5 (CON’T) [1] = test: FIG. 5 (CON’T)
Procedure: (§1) Table printed on a drawing sheet, FIG. 5 (CON’T)
(§2) The patent's description of the figure: FIG. 5 is a table summarizing the results of Examples 42-44 for various compounds described herein. NT indicates “not tested.” For EC50 values, “A” represents an EC50 less than or equal to 5.0 μM, “B” represents an EC50 from 5.1 μM to 10.0 μM, “C” represents an EC50 from 10.1 μM to 50.0 μM, and “D” represents an EC50 greater than 50.0 μM.

PRX3 = biological target: T1, PRX3 (Homo sapiens, UniProt P30048); test: Crosslinking study: PRX3 western blot of H-MESO cell lysates; assay type: cell-based; settings: H-MESO cells treated 24 hours; TS at 2.5 or 5 μM; reducing SDS-PAGE, PRX3 western blot (FIG. 3)
T1 construct: endogenous in cells; host or cells: H-MESO malignant mesothelioma cells
T1 sequence (P30048 62-256): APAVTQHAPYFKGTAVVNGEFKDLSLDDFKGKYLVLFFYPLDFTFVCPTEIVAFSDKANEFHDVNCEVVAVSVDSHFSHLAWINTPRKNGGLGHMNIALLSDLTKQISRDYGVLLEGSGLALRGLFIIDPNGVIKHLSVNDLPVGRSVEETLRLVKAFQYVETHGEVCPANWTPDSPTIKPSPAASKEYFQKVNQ
Procedure: Malignant Mesothelioma (MM) cells (H-MESO cell line) were plated into 6-well plates in complete tissue culture media. Cells were allowed to adhere for 24 hours before being treated with indicated concentrations of thiostrepton (TS), (1) or (5) (DMSO Stocks) for 24 hours. Cell lysates were generated using standard RIPA buffer, protein concentrations were determined using a Bradford Assay and 20 μg of total protein per sample were separated by reducing SDS-Polyacrylamide Gel Electrophoresis. Proteins were transferred to a PVDF membrane, blocked with 5% Bovine Serum Albumin (BSA) for 1 hour and incubated with PRX3 primary antibody overnight at 4° C. in IX Tris Buffered Saline with Tween (TBST). Membranes were washed 3X with IX TBST and incubated with horseradish peroxidase conjugated (HRP) secondary antibody for 1 hour at room temperature. Membranes were washed 3x in IX TBST and HRP signal was developed using Enhanced Chemiluminescence and visualized on a GE digital imager.

FIG. 5 (CON'T) [2] = test: FIG. 5 (CON'T)
Procedure: (§3) Table printed on a drawing sheet, FIG. 5 (CON'T)
as §2
First reader's note: Continued from the sheet before: the first body row is the end of a record begun there; EC50 is given as classes A-D whose legend is not printed on this sheet.

578 cancer cells lines = settings: of 578 cancer cells lines tested; Corsello et al. Nature Cancer 2020; cited from earlier work
HMESO mesothelioma cells = test: Cell viability study (crystal violet, 48 h); assay type: cell-based; settings: Homo sapiens, 48 h incubation, read-out: IC50 (Concentration of drug required to kill 50% of cells)
Procedure: Cell Lines were plated in 96-well plates (Corning, Kennebunk, ME, USA) at a density of 2500 cells per well. The following day, cells were treated with test compounds diluted in complete media followed by incubation for 48 h. Post-incubation cells were washed with PBS (Corning Cellgro, Manassas, VA, USA), fixed with 3.0% formaldehyde (Fisher BioReagents, Fair Lawn, NJ, USA) in PBS, and stained for 30 min with 0.1% crystal violet (Acros Organics, Fair Lawn, NJ, USA) in water. Crystal violet stain was removed, and plates were washed with FEO and allowed to dry. To quantify cell viability, plates were imaged using the Lionheart Plate reader (BioTek Instruments, Winooski, VT, USA) and/or analyzed by absorbance at 540 nm (crystal violet dye dissolved in 100% methanol) using the Synergy HTX plate reader (BioTek Instruments, Winooski, VT, USA). To determine the effective cytotoxic concentration (ICso) of test compounds, the data were plotted using a 4-parameter non-linear regression model using GraphPad Prism7 software (GraphPad Software, San Diego, CA, USA).
Cell viability assay data in HMESO mesothelioma cells treated with compounds (1)—HCl or (5) HCl are summarized in the below Table 2. ICso (Concentration of drug required to kill 50% f cells) is shown in […] concentration

FIG. 5 (CON’T) [3] = test: FIG. 5 (CON’T); remark: listed apart in the source
Procedure: as §1, §2
First reader's note: Continued from an earlier sheet of FIG. 5; the EC50 classes A-D and NT are not explained on this sheet but only in the patent's figure description.

[4] = Behaviour of compounds in DMSO and complete tissue culture media (HMESO cell viability assay, FIG. 1); assay type: physicochemical; settings: from DMSO solution
Procedure: FIG. 1: Cell viability assay data in Malignant Mesothelioma (MM) cells (HMESO cell line) treated with compound (1)—HCl or (5)—HCl N=2 technical and 2 biological replicates conducted by 2 different lab technicians. All compounds went into solution in 100% DMSO. (5)—HCl precipitated at concentrations of ˜20-80 μM when added to complete tissue culture media.

FIG. 5 (CON'T) [5] = test: FIG. 5 (CON'T); remark: listed apart in the source
Procedure: as §3, §2
First reader's note: Continued from an earlier sheet of FIG. 5; EC50 is given as classes A-C, and neither these classes nor NT are explained on this sheet.

Solubility Assay (HPLC) = assay type: physicochemical; settings: HEPES/NaCl buffer, aqueous with cosolvent or surfactant or cyclodextrin, kinetic from dmso stock; 20 mM HEPES, 100 mM NaCl, pH 7.5, 18-24 hours at ambient temperature; read-out: Solubility
How it was run: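 Compound from 20 mM DMSO stock added to 20 mM HEPES, 100 mM NaCl, pH 7.5, rotated 18-24 h at ambient temperature, then centrifuged 10 min at 20,000×g to remove solids. Supernatant diluted in DMSO and quantified by HPLC peak area against the closest of 200 μM and 20 μM standards, corrected for dilution.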

[6] = test system: human SK—OV-3 ovarian cancer cells; test: Cellular Activity Assay (cytotoxicity, crystal violet); assay type: cell-based; settings: Homo sapiens; SK—OV-3 cells, treated for 48 hr, 0.1-100 μM, crystal violet absorbance at 540 nm
How it was run: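 SK-OV-3 cells plated, allowed 24 h recovery, then treated 48 hr with compound at 0.1-100 μM. Live cells were fixed (3.0% formaldehyde), stained with 0.1% crystal violet and read at 540 nm. EC50 was fitted after normalizing to matched-DMSO controls.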

purified human PRX3 = biological target: T2, purified human PRX3 (Homo sapiens, UniProt P30048); test: Biochemical PRX3 Inhibition Assay (non-reducible crosslink by SDS PAGE + single adduct by MALDI-TOF MS); settings: 100 μM PRX3 with TRX2/thioredoxin reductase/NADPH system and hydrogen peroxide, 1-2 hr at 37° C.
T2 construct: made in house
T2 sequence (P30048 62-256): T1 sequence (P30048 62-256)
How it was run: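 Purified human PRX3 (100 µM) cycled with TRX2, thioredoxin reductase, NADPH regenerating system and H2O2, incubated with compound 1–2 h at 37 °C. Non-reducible crosslink quantified by densitometry of SDS-PAGE (~46 vs ~23 kDa) after DTT; single-adduct fraction from MALDI-TOF MS peak intensities, background-corrected against DMSO.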

[7] = test system: Enterococcus hirae (ATCC #10541); test: Antimicrobial Activity Assay (MIC / growth inhibition); assay type: cell-based; settings: for MIC: ATCC10541, Enterococcus hirae, analogs tested at 20 μM final concentration
Procedure: The overnight growth was then diluted into growth media to make a single solution of E. hirae with a final optical density at 600 nm=0.02 AU. A 20 mM stock solution of Thiostrepton in DMSO was made and used to make multiple dilutions of TS in DMSO. Each TS dilution (0.1 mL) was then added to a test tube containing 10 mL of the diluted E. hirae and grown at 37° C. overnight while shaking at 180 rpm. The next morning, each tube was visually inspected to determine if the cells grew. Final concentrations tested were 0.120, 0.090, 0.075, 0.060, 0.045, 0.030, and 0.015 μM TS. […] Three replicates were made on three separate days (n=9). […] For TS analogs, the dilute E. hirae was treated with 20 μM final concentration of each analog (three replicates each). […] DMSO was used as a positive control (complete cell growth) and 20 μM thiostrepton was used as a negative control.

[8] = E. hirae, overnight at 37° C., MIC determination, n=9

SMILES: C=C(NC(=O)C(=C)NC(=O)c1csc(-c2ccc(N)cc2)n1)C(N)=O [(1), N-(3-((3-amino-3-oxoprop-1-en-2-yl)amino)-3-oxoprop-1-en-2-yl)-2-(4-aminophenyl)thiazole-4-carboxamide]
Covalent PRX3 crosslinking (PRX3-X-PRX3) (PRX3): No PRX3 —X —PRX3 crosslinking was observed

SMILES: C=C(NC(=O)C(=C)NC(=O)c1csc(C2=N[C@@H]3c4csc(n4)[C@H]4NC(=O)c5csc(n5)[C@H]([C@](C)(O)[C@@H](C)O)NC(=O)[C@H]5CSC(=N5)/C(=C/C)NC(=O)[C@H]([C@@H](C)O)NC(=O)c5csc(n5)[C@]3(CC2)NC(=O)[C@H](C)NC(=O)C(=C)NC(=O)[C@H](C)NC(=O)[C@H]([C@@H](C)CC)N[C@@H]2C=Cc3c([C@H](C)O)cc(nc3[C@H]2O)C(=O)O[C@@H]4C)n1)C(N)=O [Thiostrepton, thiostrepton]
number of tumor cells lines in which meaningful efficacy was shown (578 cancer cells lines): 403

SMILES: C=C(NC(=O)C(=C)NC(=O)c1csc(-c2ccc(N)cc2)n1)C(N)=O [(1)-HC1, N-(3-((3-amino-3-oxoprop-1-en-2-yl)amino)-3-oxoprop-1-en-2-yl)-2-(4-aminophenyl)thiazole-4-carboxamide hydrochloride]
IC50 (HMESO mesothelioma cells): 748 µM

SMILES: C=C(NC(=O)c1csc(-c2ccc(N)cc2)n1)C(=O)NC(=C)C(=O)OC [(5)—HCl, Methyl 2-(2-(2-(4-aminophenyl)thiazole-4-carboxamido)acrylamido)acrylate hydrochloride]
IC50 (HMESO mesothelioma cells): 1.93 µM | concentrations at which compound precipitated when added to complete tissue culture media [4]: 20 to 80 µM

SMILES: C=C(NC(=O)c1csc(-c2ccc(COC(=O)NCc3ccccc3)cc2)n1)C(=O)NC(=C)C(=O)OC [Compound 30, Methyl 2-(2-(2-(4-(((benzylcarbamoyl)oxy)methyl)phenyl)thiazole-4-carboxamido)acrylamido)acrylate]
solubility (Solubility Assay (HPLC)): < 100 µM | EC50 [6]: 25 to 100 µM | PRX3 Inhibition (Crosslink + Mono-adduct) (purified human PRX3): + (5-50%) | MIC [7]: > 20 µM

SMILES: C=C(NC(=O)c1csc(-c2ccc(NC(=O)CCCCCN=[N+]=[N-])cc2)n1)C(=O)NC(=C)C(=O)OC [Compound 25, Methyl 2-(2-(2-(4-(6-azidohexanamido)phenyl)thiazole-4-carboxamido)acrylamido)acrylate]
solubility (Solubility Assay (HPLC)): < 100 µM | EC50 [6]: 10 to 25 µM | PRX3 Inhibition (Crosslink + Mono-adduct) (purified human PRX3): ++ (50-90%) | MIC [7]: > 20 µM

SMILES: C=C(NC(=O)C(=C)NC(=O)c1csc(C2=N[C@@H]3c4csc(n4)[C@H]4NC(=O)c5csc(n5)[C@H]([C@](C)(O)[C@@H](C)O)NC(=O)[C@H]5CSC(=N5)/C(=C/C)NC(=O)[C@H]([C@@H](C)O)NC(=O)c5csc(n5)[C@]3(CC2)NC(=O)[C@H](C)NC(=O)C(=C)NC(=O)[C@H](C)NC(=O)[C@H]([C@@H](C)CC)N[C@@H]2C=Cc3c([C@H](C)O)cc(nc3[C@H]2O)C(=O)O[C@@H]4C)n1)C(N)=O [TS, Thiostrepton, reference compound]
IC50 (HMESO mesothelioma cells): 1.01 µM | Covalent PRX3 crosslinking (PRX3-X-PRX3) (PRX3): resulted in covalent PRX3 crosslinking | TS concentrations at which complete growth was observed [7, 8]: < 0.030 µM | TS concentrations at which no growth was observed [7, 8]: > 0.045 µM

The next lines start with results.

Time into solution from powder? (FIG. 5 (CON’T) [1]): 1 to 2 min
SMILES: C=C(NC(=O)c1csc(N2CCC(C(=O)NCCCOC)CC2)n1)C(=O)NC(=C)C(=O)OC [compound 61]

Time into solution from powder? (FIG. 5 (CON'T) [2]): 1 to 2 min
SMILES: C=C(NC(=O)c1csc(N2C[C@@H](C)N(C(=O)OC(C)(C)C)[C@@H](C)C2)n1)C(=O)NC(=C)C(=O)OC [compound 56]

Time into solution from powder? (FIG. 5 (CON’T) [3]): 1 to 2 min
SMILES: C=C(NC(=O)c1csc(N2CCN(CCCOC)C(=O)C2)n1)C(=O)NC(=C)C(=O)OC [compound 63]

Covalent PRX3 crosslinking (PRX3-X-PRX3) (PRX3): Similar, yet less robust
SMILES: C=C(NC(=O)c1csc(-c2ccc(N)cc2)n1)C(=O)NC(=C)C(=O)OC [(5), Methyl 2-(2-(2-(4-aminophenyl)thiazole-4-carboxamido)acrylamido)acrylate]

Time into solution from powder? (FIG. 5 (CON'T) [5]): 1 to 2 min
SMILES: C=C(NC(=O)c1ccc(-c2ccc(NC(=O)OC(C)(C)C)cc2)cc1)C(=O)NC(=C)C(=O)OC [compound 69]

solubility (Solubility Assay (HPLC)): < 100 µM | PRX3 Inhibition (Crosslink + Mono-adduct) (purified human PRX3): +++ (>90%) | MIC [7]: > 20 µM
SMILES: C=C(NC(=O)c1csc(N2CC[C@@H](NC(=O)OCC)C2)n1)C(=O)NC(=C)C(=O)OC [Compound 23, Methyl (R)-2-(2-(2-(3-((ethoxycarbonyl)amino)pyrrolidin-1-yl)thiazole-4-carboxamido)acrylamido)acrylate]
EC50 [6]: 1 to 10 µM
